We go through 4 substances from patent US4607023A, “Natriuretic” (L'Institut de Recherches Cliniques de Montreal, priority 1983, dated 1986).

Test [1] relates to female Sprague-Dawley rats. As to the kind of experiment: Natriuretic and diuretic bioassay: urinary Na+ excretion after i.v. bolus in anesthetized rats. It is filed as in vivo, rat. Conditions: for natriuretic activity, comparison in words (FIG. 12): 15 to 1350 pmoles i.v. bolus, change of Na+ excretion per 20 min, at least four rats per dose. How it is done: Diuretic and natriuretic activities of the ANFs are determined by the method of Garcia et al., (1982) Experientia 38, 1071-1073 and of Thibault et al., (1983) Hypertension 5, (Suppl. I), 75-80, both cited above, in female Sprague-Dawley rats (180-200 g) anesthetized with pentobarbital (60 mg/kg i.p.) equipped with a bladder catheter and an intrajugular vein catheter. The animals receive an infusion of 5% dextrose (3 ml/hr) for 45 minutes before the assay and during the evaluation period. Urine is collected in pre-weighed vials for 20 minute intervals. Following a basal collection period the ANFs to be assayed are injected as a bolus of 1 ml in Krebs solution pH 7.4 via the intrajugular vein catheter, urine is collected for a 20 minute period, and sodium concentrations are determined by flame photometry. Results are expressed as μEq of Na^+ for the collection period of 20 minutes from which the sodium excretion of the control period has been subtracted (ΔμEq Na^+ /20 min), and specific activity is defined as ΔμEq Na^+ /20 min/mg of protein. Protein is measured by the Bradford assay, see Spector, T. (1978) Anal. Biochem. 86, 142-146, with bovine albumin as a standard except for substantially pure ANFs where the amount of peptide is estimated from the amino acid sequencer.
Generally, in the purification procedures described above, unless otherwise specified all procedures are carried out at 4° C. At the end of each chromatographic step the material is lyophilized and then stored at -20° C. until used. For small volume (<6 ml) lyophilization is carried out in polystyrene tubes (1.5×7 cm) in a Savant Speed Vac concentrator. Larger volumes in the first steps are lyophilized in glass flasks. For subsequent steps, samples are dissolved in 1 to 3 ml of 0.01M ammonium acetate, pH 5.0, and aliquots are taken for the biological assay (Garcia et al., (1982) Experientia 38, 1071-1073, cited above) which are done in duplicate.
Generally, in the purification procedures discussed above, unless otherwise specified all procedures were carried out at 4° C. At the end of each chromatographic step the material was lyophilized and then stored at -20° C. until used. For small volume (<6 ml) lyophilization was carried out in polystyrene tubes (1.5×7 cm) in a Savant Speed Vac concentrator. Larger volumes in the first steps were lyophilized in glass flasks. For subsequent steps, samples were dissolved in 1 to 3 ml of 0.01M ammonium acetate, pH 5.0. Aliquots were taken for the biological assay (Garcia et al. (1982) Experientia 38, 1071-1073) which were done in duplicate. Proteins were measured by the Bradford assay (Spector, T. (1978) Anal. Biochem. 86, 142-146) with bovine albumin as a standard except in the last step where the amount of peptides was estimated from the amino acid sequencer.
The natriuretic activities of native ANF(2-33), ANF(3-33) and synthetic ANF(8-33) acid or amide forms were determined by a biological assay (Garcia, R., Cantin, M., Thibault, G., Ong, H. and Genest, J. (1982) Experientia 38: 1071-1073; Thibault, G., Garcia, R., Cantin, M., and Genest, J. (1983) Hypertension 5 (Suppl. I): 75-83), both references cited above. Female Sprague-Dawley rats (180-200 g) were used as bioassay animals. They were anesthetized with pentobarbital (60 mg/kg i.p.) and a bladder catheter and an intrajugular vein catheter were installed. The animals received a 5% (W/V) dextrose infusion (2.1 ml/hr) 30 minutes before the assay and during the evaluation period. Urine was collected in preweighed vials for 20-minute intervals. After a basal collection period, the ANF peptides (native ANF(2-33) or (3-33) or synthetic (8-33) acid or amide forms; 15 to 1350 pmoles) were injected in a bolus injection in 1 ml of Krebs solution, pH 7.4. Each dose was injected in at least four rats. The sodium concentration was measured by a flame photometer. The results are expressed in terms of change of Na^+ excretion per 20 min±SEM.

For test [2], the system named is rabbit renal arteries (helical vascular strips). As to the kind of experiment: Vasorelaxant activity in vitro on norepinephrine-contracted rabbit renal artery strips. The note with it: 0.25 μg peptide added to the bath 5 min before the cumulative NE curve; p<0.01. It is filed as cell-based. How it is done:
The vasorelaxant activities of the ANFs of this invention are determined in vitro by means of a procedure involving the use of mammalian vascular strips. Briefly, healthy rabbits are anesthetized with sodium pentobarbital (30 mg/kg i.v.), their renal arteries are rapidly excised, fat and connective tissure are trimmed off, and the arterial issue is helically cut. The helical strips thus obtained are mounted between a fixed base and a force displacement transducer, immersed in a bath of continuously oxygenated Krebs solution at 37° C. and pH 7.4, and a tension of 500-700 mg is applied to the strip of arterial tissue. L-Norepinephrine bitartrate (NE) is added to the bath to obtain concentrations of NE ranging from 3.9×10^-6 to […], the contractions elicited by NE are registered on a polygraph, and a cumulative dose-response curve is established. Once a standard curve is reproducible it is repeated five minutes after having added 0.25 μg of the respective ANF to the bath. […]
For each arterial strip a cumulative dose-response curve to NE (L-norepinephrine bitartrate, Sigma Chemicals) ranging from 3.9×10^-6 to 1.6×10^-2 mM was obtained. […] The contraction elicited for each dose of NE is expressed as a percent of the maximum response.
Results are expressed as mean ±SEM. […]

[3] abbreviates: native peptide peaks after last step, CN μBondapak column, high molecular weight region, rat bioassay.

Entries after “also recorded” stand apart in the source; their conditions may differ. Bridge positions count the residues as written; N and C are the ends.

For the substance “H-Leu-Ala-Gly-Pro-Arg-Ser-Leu-Arg-Arg-Ser-Ser-Cys-Phe-Gly-Gly-Arg-Ile-Asp-Arg-Ile-Gly-Ala-Gln-Ser-Gly-Leu-Gly-Cys-Asn-Ser-Phe-Arg-Tyr-OH (H-LAGPRSLRRSSCFGGRIDRIGAQSGLGCNSFRY-OH; disulfide 12-28; ends not checked) [ANF(1-33), native rat atrial natriuretic factor of 33 amino acid residues, disulfide bridge Cys12-Cys28]”, the “specific activity (natriuretic)” value in test [1] (setting [3]) was 297,000 μEq of Na^+ excreted/20 min/mg. In addition, the “diuretic and natriuretic activity, general statements in words” value (shortened to “diuretic and natriuretic activity”) in test [1] (rat bioassay) is listed as “biologically active”.

As to “H-Arg-Arg-Ser-Ser-Cys-Phe-Gly-Gly-Arg-Ile-Asp-Arg-Ile-Gly-Ala-Gln-Ser-Gly-Leu-Gly-Cys-Asn-Ser-Phe-Arg-Tyr-OH (H-RRSSCFGGRIDRIGAQSGLGCNSFRY-OH; disulfide 5-21; ends not checked) [ANF(8-33), native rat atrial natriuretic factor of 26 amino acid residues]”, the “specific activity (natriuretic)” value in test [1] (setting [3]) is given as 450,000 μEq of Na^+ excreted/20 min/mg. In test [1] (rat bioassay), the “diuretic and natriuretic activity” value is recorded as “more active than ANF(3-33) or ANF(1-33)”.

As for “H-Ala-Gly-Pro-Arg-Ser-Leu-Arg-Arg-Ser-Ser-Cys-Phe-Gly-Gly-Arg-Ile-Asp-Arg-Ile-Gly-Ala-Gln-Ser-Gly-Leu-Gly-Cys-Asn-Ser-Phe-Arg-Tyr-OH (H-AGPRSLRRSSCFGGRIDRIGAQSGLGCNSFRY-OH; disulfide 11-27; ends not checked) [ANF(2-33), native rat atrial natriuretic factor of 32 amino acid residues]”, the “natriuretic activity, comparison in words (FIG. 12)” value in test [1] is recorded as “slightly higher than that of the above compounds; also recorded: slightly higher than that of the other forms”.

For the substance “H-Gly-Pro-Arg-Ser-Leu-Arg-Arg-Ser-Ser-Cys-Phe-Gly-Gly-Arg-Ile-Asp-Arg-Ile-Gly-Ala-Gln-Ser-Gly-Leu-Gly-Cys-Asn-Ser-Phe-Arg-Tyr-OH (H-GPRSLRRSSCFGGRIDRIGAQSGLGCNSFRY-OH; disulfide 10-26; ends not checked) [ANF(3-33), native rat atrial natriuretic factor of 31 amino acid residues]”, the “natriuretic activity, comparison in words (FIG. 12)” value in test [1] was “comparable natriuretic activities”. The “specific activity of the material recovered (natriuretic)” value in test [1] (after CN μBondapak reverse phase HPLC, partial inactivation of the peptide) was 84,000 μEq Na^+ excreted/20 min/mg. Besides, the “specific activity (natriuretic)” value in test [1] (material at the Mono S column step, fractions 40 to 44 minutes, low molecular weight region) is listed as 131,000 μEq of Na^+ excreted/20 min/mg. Moreover, in test [1] (rat bioassay), the “diuretic and natriuretic activity” value is “biologically active”. In test [2], the “vasorelaxant activity: displacement of the norepinephrine dose-response curve (FIG. 13)” value was “displacing the response to norepinephrine (NE) to the right”.
